Results as given in patent US20050119337A1, “Methods of application of Schisandrin B in the preparation of anticancer medications” (priority 2003, published 2005).

How the values were obtained:
K562/vcr = assay: Reversal of drug resistance, MTT assay, 48 h; type: cell-based; settings: for increase of sensitivity of K562/vcr to doxorubicin: FIG. 1
Protocol: To illustrate a method for reversal of drug resistance by application of Schisandrin B, cell lines K562/adr, K562/vcr (X. […] H. […] Cells were cultured in RPMI-1640 medium containing 10% fetal calf serum. […] The logarithmic growing cells were seeded into a 96 well plate (20,000 cells/well). Specific anticancer drugs (set forth in Table 1) and Schisandrin B in combination were added into the wells containing the select cell lines. […] Cell viability was assessed by MTT assays as described in X.

[1] = test system: human leukemia MDR cell line K562/adr; assay: Reversal of drug resistance of K562/adr, MTT assay, 72 h; type: cell-based; settings: K562/adr
Protocol: (§1) In this embodiment, the IC50 of anticancer drugs in the presence or absence of Schisandrin B toward MDR cells was determined.
(§2) MTT assays were carried out in triplicate against human leukemia MDR cell line K562/adr and human epidermoid carcinoma MDR cell line KBV200. MTT assays as described previously (X. Hu, et al., Chemotherapy 41:296-305 (1995)) were used to determine the cytotoxicity of each anticancer drug in the presence or absence of Schisandrin B or verapmil.
Cells were treated with specific anticancer drugs as set forth therein. “Ctrl” represents control cells treated with anticancer drugs in the absence of Schisandrin B or verapamil. “SchB” represents cells treated with anticancer drugs in the presence of Schisandrin B (10 μg/ml).

[2] = test system: human epidermoid carcinoma MDR cell line KBV200; assay: Reversal of drug resistance of KBV200, MTT assay, 72 h; type: cell-based
Protocol: as §1, §2
Cells were treated with specific anticancer drugs as set forth therein. […] “SchB” represents cells treated with anticancer drugs in the presence of Schisandrin B (10 μg/ml).

KBV200 [3] = assay: Apoptosis induced by doxorubicin, Hoechst 33342/propidium iodide staining; type: cell-based, human; settings: KBV200, A5 + S10: doxorubicin 5 μg/ml and Schisandrin B 10 μg/ml, 24 hours
Description: (§3) Cells were collected and stained with fluorescent dyes Hoechst 33342 and propidium iodide. Hoechst 33342 stains the nuclei of cells with the color blue, and propidium iodide exclusively stains dead cells with the color of red. Accordingly, while Hoechst 33342 only stained the living cells blue, the dead cells were stained by both dyes with the colors of yellow, orange or red. The percentage of dead cells was counted under fluorescent microscope.

KB = assay: as above; type: cell-based
Description: as §3

KBV200 [4] = assay: Cell cycle distribution and hypodiploid cells, propidium iodide flow cytometry; type: cell-based, human
Protocol: The test cells were also analyzed by flow cytometry after being subjected to propidium iodide staining.

KBV200 cells [5] = assay: DNA fragmentation, agarose electrophoresis; type: cell-based, human; settings: FIG. 13
Description: The DNA of above cells was also extracted and subjected to agarose electrophoresis.

KBV200-implanted tumor = assay: In vivo reversal of drug resistance, KBV200-implanted tumor; set-up: species or system Balb/c nude mice; settings: for MST / T/C: Balb/c nude mice bearing KBV200-implanted tumor; for MST: doxorubicin 5 mg/kg i.v., Schisandrin B 50 mg/kg gastric intubation; for T/C: survival period in the test group / control group x 100
Protocol: Thirty nine Balb/c nu/nu female mice were inoculated subcutaneously with KBV200 cells (5×10^6 KBV200 cells/each mouse) on day 0. […] Mean body weights were recorded daily. All mice were observed once per day (or more) for mortality and signs of ill health (i.e., weight loss, change in appetite, or behavioral changes). Therapeutic comparisons were made between control and treatment groups by determining the tumor size. Tumor size was monitored approximately every other day by caliper measurements and calculated according to the formula [Tumor weight=(length×width^2)÷2]. The median survival times (MST) and the percent increase in life span (% ILS) were calculated as: % ILS=[(MSTtreatment/MSTcontrol)−1]×100.
“MST” represents median survival time. The survival rate (T/C %) was calculated by following equation: T/C(%)=[Average survival period in the test group/average survival period in the control group]×100. *P<0.05 compared to saline, vehicle, or Schisandrin B alone.

K562/adr = assay: Reversal of resistance to doxorubicin (FIG. 1); type: cell-based, human; settings: in the presence of Schisandrin B
Protocol: To illustrate a method for reversal of drug resistance by application of Schisandrin B, cell lines K562/adr, K562/vcr (X. Hu et al., Chemotherapy 41:296-305 (1995)), and KBv200 (X. H. Zhang et al., Yao Xue Xue Bao 29:246-251 (1994)) were selected for use because these particular cell lines are characteristic of overexpression of P-glycoprotein. Cells were cultured in RPMI-1640 medium containing 10% fetal calf serum. The test compound Schisandrin B was dissolved in dimethyl sulfoxide (DMSO) (10 mg/ml as stock). The logarithmic growing cells were seeded into a 96 well plate (20,000 cells/well). Specific anticancer drugs (set forth in Table 1) and Schisandrin B in combination were added into the wells containing the select cell lines. Controls for each anticancer drug type without Schisandrin B were also seeded into the 96 well plate. […] Cell viability was assessed by MTT assays as described in X. Hu et al., Chemotherapy 41:296-305 (1995).

K562 cells = assay: Cytotoxicity of Schisandrin B, MTT assay, 48 h; type: cell-based; settings: 10 and 20 μg/ml, FIG. 2
Protocol: (§4) To illustrate the cytotoxicity of Schisandrin B according to the present disclosure, cell lines selected for use include cancer cell lines K562, K562/Adr, K562/vcr; primary cultured cells, including human peripheral blood mononuclear cells (PBMC) and human fibroblast cells; noncancer cell lines, including human bone marrow stromal cell D6p4 and human liver cell HL-7702. Cells were cultured in RPMI-1640 medium containing 10% fetal calf serum. The logarithmic growing cells were seeded into a 96 well plate (20,000 cells/well).

[6] = test system: MDR cells (K562/Adr, K562/vcr); assay: Cytotoxicity of Schisandrin B, MTT assay, 48 h; type: cell-based; settings: 10 and 20 μg/ml, FIG. 2
Protocol: as §4

[7] = test system: normal human cells (PBMC, fibroblast cells, bone marrow stromal cell D6p4, liver cell HL-7702); assay: Cytotoxicity of Schisandrin B, MTT assay, 48 h; type: cell-based; settings: 10 and 20 μg/ml, FIG. 2
Protocol: as §4

P-glycoprotein [8] = target: T1, P-glycoprotein (Homo sapiens, UniProt P08183); assay: Intracellular doxorubicin accumulation, flow cytometry; type: cell-based; settings: doxorubicin 5 μg/ml, Schisandrin B 10 μg/ml, 60-120 minutes, FIG. 3
T1 construct: The cell line selected was MDR cancer cell K562/adr and its parental drug sensitive cell K562; endogenous in cells; host or cells: K562/adr (doxorubicin-selected human leukemia MDR cell line)
Protocol: The cell line selected was MDR cancer cell K562/adr and its parental drug sensitive cell K562. Cells were cultured in RPMI-1640 medium containing 10% fetal calf serum in cell-culture flasks.

P-glycoprotein [9] = target: T1, P-glycoprotein; assay: Daunorubicin accumulation, flow cytometry; type: cell-based; settings: daunorubicin 2 μg/ml, Schisandrin B 10 μg/ml, FIG. 5
Protocol: (§5) P-glycoprotein functions as a drug pump that unilaterally pumps the anticancer drugs out of MDR cancer cells. Inhibition of P-glycoprotein results in an increase of the intracellular drug concentration within cancer cells. The inhibition of P-glycoprotein is assessed by analyzing the anticancer drug concentration within the test cells in the presence or absence of Schisandrin B. […] Cells were collected at intervals of 15, 30, 60, 90, 120, and 160 minutes after incubation.

P-glycoprotein [10] = target: T1, P-glycoprotein; assay: Rh-123 accumulation, flow cytometry; type: cell-based; settings: Rh-123 2 μg/ml, Schisandrin B 10 μg/ml, FIG. 6
Protocol: as §5, with “90,” for “90, 120,”, “120” for “160”, “incubation. […] At least 50,000 cells were analyzed for each sample.” for “incubation.”

KBV200 cells [11] = assay: Intracellular distribution of daunorubicin and Rh-123, fluorescent microscope; type: cell-based, human; settings: KBV200, Schisandrin B 5 and 10 μg/ml, 1 hour, FIGS. 10 and 11
Protocol: To illustrate the effects of Schisandrin B on the intracellular distribution in MDR cancer cells, MDR cell KBV200 and its parental drug sensitive cell line KB were selected for use. […] The respective cultures were incubated at 37° C. for 1 hour, washed with ice-cold PBS, and the cells were observed under fluorescent microscope.

P-glycoprotein [12] = target: T1, P-glycoprotein; assay: [3H]Azidopine photoaffinity labeling of P-glycoprotein; type: binding; settings: KBV200 cytoplasmic membranes, 1.0 μM azidopine, FIG. 14
Description: To illustrate that Schisandrin B physically interacts with P-glycoprotein according to the present disclosure, [^3H]Azidopine Photoaffinity Labeling of P-glycoportein in the presence or absence of Schisandrin B was used. [^3H]Azidopine is a chemical having unique properties that enable it to interact with P-glycoprotein. If Schisandrin B is also able to interact with P-glycoprotein, the binding of P-glycoprotein with [^3H]Azidopine would be reduced in the presence of Schisandrin B.
The cytoplasmic membranes (enriched with P-glycoprotein) of MDR cell KBV200 were prepared according to the methods as described in May GL, et al., Int. J. Cancer 42:728-733(1988) and Hyafil F, et al., Cancer Res. 53:4595-4602(1993). Membranes were incubated with Schisandrin B for 40 minutes in the dark, followed by 1 hour incubation with 1.0 μM [H]azidopine. After UV irradiation for 2 minutes, the photolabeled membranes were subjected to SDS-PAGE on a 7.5% gel, followed by fluorography.

[13] = KBV200, A1: doxorubicin 1 μg/ml
[14] = KBV200, A5: doxorubicin 5 μg/ml
[15] = KBV200, doxorubicin 1 μg/ml and Schisandrin B 10 μg/ml
[16] = KBV200, doxorubicin 5 μg/ml and Schisandrin B 10 μg/ml

T1 sequence (P08183 whole entry): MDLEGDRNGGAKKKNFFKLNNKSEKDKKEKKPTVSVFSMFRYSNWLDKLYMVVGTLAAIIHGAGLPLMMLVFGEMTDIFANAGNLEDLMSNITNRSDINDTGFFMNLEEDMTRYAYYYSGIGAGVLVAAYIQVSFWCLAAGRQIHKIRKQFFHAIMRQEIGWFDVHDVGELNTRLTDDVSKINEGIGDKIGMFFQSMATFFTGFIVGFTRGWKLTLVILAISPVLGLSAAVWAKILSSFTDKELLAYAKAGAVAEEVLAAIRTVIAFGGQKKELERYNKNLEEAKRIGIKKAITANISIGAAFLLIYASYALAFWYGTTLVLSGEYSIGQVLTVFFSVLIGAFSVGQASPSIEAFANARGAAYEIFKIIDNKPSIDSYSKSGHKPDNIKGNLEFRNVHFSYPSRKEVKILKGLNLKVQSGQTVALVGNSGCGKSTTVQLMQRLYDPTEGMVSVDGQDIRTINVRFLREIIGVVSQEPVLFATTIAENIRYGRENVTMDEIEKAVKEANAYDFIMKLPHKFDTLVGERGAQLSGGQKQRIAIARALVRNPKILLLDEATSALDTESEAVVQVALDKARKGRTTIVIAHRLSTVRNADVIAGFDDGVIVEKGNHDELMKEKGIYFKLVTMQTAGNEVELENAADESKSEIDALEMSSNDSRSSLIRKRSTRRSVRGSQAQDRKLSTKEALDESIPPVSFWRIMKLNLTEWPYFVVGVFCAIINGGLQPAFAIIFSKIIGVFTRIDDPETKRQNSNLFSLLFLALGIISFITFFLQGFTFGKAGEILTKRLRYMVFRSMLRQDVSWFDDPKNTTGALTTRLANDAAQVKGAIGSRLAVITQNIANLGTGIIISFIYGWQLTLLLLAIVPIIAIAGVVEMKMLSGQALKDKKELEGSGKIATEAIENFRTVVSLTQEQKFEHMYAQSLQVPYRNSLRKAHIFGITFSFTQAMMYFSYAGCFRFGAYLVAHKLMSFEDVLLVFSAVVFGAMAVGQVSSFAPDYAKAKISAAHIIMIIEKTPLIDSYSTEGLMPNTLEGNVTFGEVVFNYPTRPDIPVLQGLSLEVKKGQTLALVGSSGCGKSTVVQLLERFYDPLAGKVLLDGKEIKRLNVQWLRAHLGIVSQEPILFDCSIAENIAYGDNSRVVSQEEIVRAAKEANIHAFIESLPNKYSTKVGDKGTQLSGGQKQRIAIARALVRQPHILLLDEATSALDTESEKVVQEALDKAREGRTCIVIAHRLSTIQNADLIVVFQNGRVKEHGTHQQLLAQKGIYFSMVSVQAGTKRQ

Compound: COc1cccc2c1C(=O)c1c(O)c3c(c(O)c1C2=O)C[C@@](O)(C(=O)CO)C[C@@H]3O[C@H]1C[C@H](N)[C@H](O)[C@H](C)O1 [Doxorubicin, doxorubicin]
- IC50 (K562/vcr; Homo sapiens, anticancer drug toward K562/vcr in the absence of Schisandrin B, 48 h, read-out: IC50 Control): 4.89 ± 0.21 µg/mL
- RF (Reversal Folds) (K562/vcr; IC50 in the absence of Schisandrin B divided by IC50 in the presence of Schisandrin B (10 μg/ml)): 25.7
- IC50 Schisandrin B (K562/vcr; anticancer drug toward K562/vcr in the presence of Schisandrin B (10 μg/ml), 48 h): 0.19 ± 0.01 µg/mL
- IC50 ([1]; Homo sapiens, anticancer drug alone, 72 h, read-out: IC50 Control): 1.42 ± 0.246 µg/mL
- RF (Schisandrin B) ([1]; IC50 in the absence divided by IC50 in the presence of Schisandrin B (10 μg/ml)): 20.57
- RF (verapamil) ([1]; IC50 in the absence divided by IC50 in the presence of verapamil (6 μg/ml)): 10.76
- IC50 Schisandrin B ([1]; anticancer drug in the presence of Schisandrin B (10 μg/ml)): 0.0691 ± 0.0137 µg/mL
- IC50 verapamil ([1]; anticancer drug in the presence of verapamil (6 μg/ml)): 0.1324 ± 0.0086 µg/mL
- IC50 ([2]; Homo sapiens, anticancer drug alone, KBV200, 72 h, read-out: IC50 Control): 0.327 ± 0.213 µg/mL
- RF (verapamil) ([2]; IC50 in the absence / IC50 in the presence of verapamil (6 μg/ml), KBV200): 10.11
- IC50 Schisandrin B ([2]; anticancer drug in the presence of Schisandrin B (10 μg/ml), KBV200): 0.0691 ± 0.0137 µg/mL
- IC50 verapamil ([2]; anticancer drug in the presence of verapamil (6 μg/ml), KBV200): 0.0324 ± 0.0086 µg/mL
- % apoptosis (KBV200 [3]): >90%
- % apoptosis (KB; A1: doxorubicin 1 μg/ml): >90%
- % apoptosis (KB; A5: doxorubicin 5 μg/ml): >90%
- Cell cycle distribution G0/G1 (KBV200 [4]; [13]): 44.76%
- Cell cycle distribution G2/M (KBV200 [4]; [13]): 10.14%
- Cell cycle distribution S (KBV200 [4]; [13]): 45.09%
- hypodiploid % (KBV200 [4]; [13]): 1.21%
- Cell cycle distribution G0/G1 (KBV200 [4]; [14]): 48.03%
- Cell cycle distribution G2/M (KBV200 [4]; [14]): 9.60%
- Cell cycle distribution S (KBV200 [4]; [14]): 42.37%
- hypodiploid % (KBV200 [4]; [14]): 7.51%
- Cell cycle distribution G0/G1 (KBV200 [4]; [15]): 54.04%
- Cell cycle distribution G2/M (KBV200 [4]; [15]): 5.66%
- Cell cycle distribution S (KBV200 [4]; [15]): 40.30%
- hypodiploid % (KBV200 [4]; [15]): 24.10%
- Cell cycle distribution G0/G1 (KBV200 [4]; [16]): 58.94%
- Cell cycle distribution G2/M (KBV200 [4]; [16]): 1.70%
- Cell cycle distribution S (KBV200 [4]; [16]): 39.36%
- hypodiploid % (KBV200 [4]; [16]): 70.31%
- DNA fragmentation (KBV200 cells [5]; KBV200, doxorubicin combined with Schisandrin B (10 μg/ml)): demonstrated DNA fragmentation
- DNA fragmentation (KBV200 cells [5]; KBV200, doxorubicin in the absence of Schisandrin B): did not show the similar DNA fragmentation
- tumor sizes versus control groups (KBV200-implanted tumor; Balb/c nu/nu mice, KBV200 s.c., doxorubicin 5 mg/kg via tail vein, Schisandrin B via gastric intubation, days 11, 14, 18, 21, 25, FIG. 15): not significantly different
- MST (KBV200-implanted tumor): not significantly prolonged
- T/C (KBV200-implanted tumor): 111.1%

Compound: COc1cc2c(c(OC)c1OC)-c1c(cc3c(c1OC)OCO3)C[C@@H](C)[C@@H](C)C2 [Schisandrin B]
- increase of sensitivity of K562/vcr to doxorubicin (K562/vcr; Schisandrin B 1 μg/ml): about 5 folds
- increase of sensitivity of K562/vcr to doxorubicin (K562/vcr; Schisandrin B 10 μg/ml): ~12 folds
- increase of sensitivity of K562/vcr to doxorubicin (K562/vcr; Schisandrin B 20 μg/ml): ~18 folds
- potency in reversing vincristine resistance of KBV200 relative to verapamil ([2]; Schisandrin B versus verapamil): about 5 folds
- sensitivity of K562/adr to doxorubicin (K562/adr): greatly increased the sensitivity
- cytotoxicity toward K562 cells (K562 cells): does demonstrate cytotoxicity
- cytotoxicity toward MDR cells [6]: does not demonstrate cytotoxicity
- cytotoxicity toward normal human cells [7]: does not demonstrate cytotoxicity
- intracellular doxorubicin accumulation in K562/adr (P-glycoprotein [8]): restored intracellular doxorubicin accumulation
- intracellular daunorubicin accumulation in K562/adr (P-glycoprotein [9]): restored intracellular daunorubicin accumulation
- intracellular Rh-123 accumulation in KBV200 (P-glycoprotein [10]): restored intracellular Rh-123 accumulation
- intracellular distribution of daunorubicin and Rh-123 in MDR cancer cells (KBV200 cells [11]): partially restored
- [3H]Azidopine binding with P-glycoprotein (P-glycoprotein [12]): inhibited
- MST (KBV200-implanted tumor): 21.2 days
- T/C (KBV200-implanted tumor): 101.9%
